Measurements taken from patent US20250255857A1, “METHODS OF TREATING ANDROGEN RECEPTOR-INDEPENDENT PROSTATE CANCER” (FOGHORN THERAPEUTICS INC., priority 2022, published 2025).
Where “and” joins values, the source holds several entries; their conditions need not be identical. Identical values can stand only once. Like-named read-outs stand apart in the source and are kept apart here.

Tests used:
[1] = test system: PC3 prostate xenograft tumors; test: PC3 prostate xenograft tumor model, tumor growth inhibition; assay type: in vivo, mice
Experimental: (§1) Procedure: The experimental details of the studies, including tumor model, mouse strain, cell number implanted, vehicle used, days of treatment, treatment details, and average tumor size at start of dosing are outlined in Table 1. All study mice were purchased from Beijing Anikeeper Biotech and Matrigel was utilized as a basement membrane for all xenograft models. All xenografts were engrafted subcutaneously in the right flank region. The vehicles and Compound 1 (3 mg/kg) were administered twice weekly (BIW) intraperitoneally and enzalutamide (30 mg/kg) was administered orally once daily (QD), when applicable. Tumor volumes and body weights were measured over the course of study, and doses were adjusted by body weight to achieve the proper dose in terms of mg/kg.

[2] = test system: 22Rv1 prostate xenograft tumors; test: 22Rv1 prostate xenograft tumor model, tumor growth inhibition; assay type: in vivo, mice
Experimental: as §1

[3] = test system: DU145 human prostate cancer tumor cells; test: DU145 subcutaneous CDX model efficacy study (tumor growth inhibition, tolerability); assay type: in vivo, mice; details: for tumor growth inhibition (TGI): DU145, P<0.001 vs. vehicle control; for Tumor Growth % on Day 49 / Tumor Size on Day 49 / T/C / TGI: DU145 subcutaneous model, 43 days; for T/C / TGI: Day 49
Experimental: (§2) Procedure: The experimental details of the studies, including tumor model, mouse strain, cell number implanted, vehicle used, days of treatment, treatment details, and average tumor size at start of dosing are outlined in Table 3. All study mice were obtained and the studies were conducted at Pharmaron. Each mouse was inoculated subcutaneously on the right flank with the single cell suspension of DU145 human prostate cancer tumor cells (5×10^6) in 0.1 mL with Matrigel (1:1) in MEM with 10% FBS for tumor development.
(§3) Based on tumor volume, mice were randomly assigned to respective groups using a computer-generated randomization procedure. The study groups and the number of animals per group are shown in Table 4A (efficacy study) and Table 4B (PKPD study).
Treatment for the efficacy cohort was initiated when the mean tumor volume reached 145 mm^3 on Day 7 post tumor cell inoculation. Animals for the efficacy study were randomized into 3 groups: 1) Vehicle Control BIW IP (administered twice per week, intraperitoneally (IP); 2) Compound 1 at 3 mg/kg BIW IP; and 3) Compound 1 at 15 mg/kg BIW IP.
(§4) In the case of an animal reaching a tumor size exceeding 2000 mm^3, the entire group was terminated. Plasma and tumor samples were collected at 4 hours and 72 hours post last dose for all groups. For the PKPD Cohort, the tumors were cut into 2 pieces: one for Western Blotting (WB) with BRD9 analysis, and one for RNAseq analysis. For the Efficacy Cohort, the tumors were analyzed for BRD9 levels by Western Blotting (WB).

[4] = test system: NCI-H660 prostate xenograft tumors; test: NCI-H660 prostate xenograft tumor model, tumor growth inhibition; assay type: in vivo, mice; details: NCI-H660 CDX model
Experimental: as §1

[5] = test system: VCAP human prostate cancer tumor cells; test: VCaP CRPC CDX model in castrated mice (Example 6), tumor growth inhibition and tolerability; assay type: in vivo
Experimental: Procedure: The experimental details of the studies, including tumor model, mouse strain, cell number implanted, vehicle used, days of treatment, treatment details, and average tumor size at start of dosing are outlined in Table 7. All study mice were obtained and the studies were conducted at Pharmaron. Each mouse was inoculated subcutaneously on the right flank with the single cell suspension of VCAP human prostate cancer tumor cells (1×10^7) in 0.1 mL with Matrigel (1:1) in DMEM medium with 10% FBS for tumor development. The mice were castrated by removing the testes via a scrotal approach when the tumor volume reached 270 mm^3. After castration, the tumor volume decreased. Treatment started when the mean tumor volume grew back 265 mm^3. Based on tumor volume, mice were randomly assigned to respective groups using a computer-generated randomization procedure and treated according to the study design in Table 8.

[6] = test system: LNCaP prostate xenograft tumors; test: LNCaP prostate xenograft tumor model, tumor growth inhibition; assay type: in vivo, mice
Experimental: as §1

[7] = test system: C42B prostate xenograft tumors; test: C42B prostate xenograft tumor model, tumor growth inhibition; assay type: in vivo, mice
Experimental: as §1

[8] = test system: VCaP prostate xenograft tumors; test: VCaP prostate xenograft tumor model (Example 1), tumor growth inhibition; assay type: in vivo, mice
Experimental: as §1

[9] = Plasma concentration of Compound 1 in DU145 PK/PD cohort; assay type: in vivo; details: for concentration at 72 h: BALA/c nude (sic, BALB/c nude); for concentration at 72 h / concentration at 4 h: mouse, plasma, intraperitoneal; for concentration at 4 h: BALB/c nude
Experimental: as §2, §3
Treatment for the PKPD cohort was initiated when the mean tumor volume reached 281 mm^3 on Day 14 post tumor cell inoculation. Animals were randomized into 5 groups: 1) Vehicle Control, 3 doses intraperitoneally (IP); 2) Compound 1 at 1 mg/kg, single dose IP; 3) Compound 1 at 15 mg/kg, single dose IP; 4) Compound 1 at 1 mg/kg, 3 doses IP; and 5) Compound 1 at 15 mg/kg, 3 doses IP.
as §4

[10] = VCAP CRPC model, castrated mice, Compound 1 at 10 mg/kg IP BIW, 25 days
[11] = VCAP CRPC model, castrated mice, Compound 1 at 10 mg/kg IP BIW, 25 days, Day 57

COc1cc(-c2cn(C)c(=O)c3cnc(N4CCC4)cc23)cc(OC)c1CN1CCC(CN2CCC3(CC2)CN(c2ccc4c(c2)C(=O)N(C2CCC(=O)NC2=O)C4)C3)CC1 (centres unmarked) [Compound 1, 3-(6-(7-((1-(4-(6-(azetidin-1-yl)-2-methyl-1-oxo-1,2-dihydro-2,7-naphthyridin-4-yl)-2,6-dimethoxybenzyl)piperidin-4-yl)methyl)-2,7-diazaspiro[3.5]nonan-2-yl)-1-oxoisoindolin-2-yl) piperidine-2,6-dione]
TGI with Compound 1 3 mg/kg ([1]; PC3 CDX model, AR−, 3 mg/kg BIW IP): 61.7% | TGI ([1]; PC-3 CDX model, Compound 1 3 mg/kg BIW IP): 61.7% | TGI with Compound 1 3 mg/kg ([2]; 22RV1 CDX model, AR V7+, 3 mg/kg BIW IP): 73.2% | tumor growth inhibition, in words ([2]; 22RV1 xenograft, Compound 1 3 mg/kg BIW IP, enzalutamide 30 mg/kg QD oral): modest tumor growth inhibition which was less than the TGI provided by enzalutamide treatment | TGI ([2]; 22Rv1 CDX model, Compound 1 3 mg/kg BIW IP, enzalutamide 30 mg/kg QD oral): 73.2% | tumor growth inhibition (TGI) ([3]; 3 mg/kg BIW IP): 42.2% | tumor growth inhibition (TGI) ([3]; 15 mg/kg BIW IP): 55.3% | safety profile: tolerability ([3]; DU145 study, 1 mg/kg, 3 mg/kg and 15 mg/kg IP during the treatment period): tolerated Compound 1 well | clinical abnormalities ([3]; DU145 study, any of the animals treated): No obvious clinical abnormalities | Tumor Growth % on Day 49 ([3]; 3 mg/kg BIW IP): 710 ± 19% | Tumor Size on Day 49 ([3]; 3 mg/kg BIW IP): 1029 ± 30 mm^3 | T/C ([3]; 3 mg/kg BIW IP): 57.8% | TGI ([3]; 3 mg/kg BIW IP): 42.2% | Tumor Growth % on Day 49 ([3]; 15 mg/kg BIW IP): 549 ± 26% | Tumor Size on Day 49 ([3]; 15 mg/kg BIW IP): 793 ± 31 mm^3 | T/C ([3]; 15 mg/kg BIW IP): 44.7% | TGI ([3]; 15 mg/kg BIW IP): 55.3% | TGI with Compound 1 3 mg/kg ([4]; AR−, 3 mg/kg BIW IP): 56.9% | TGI ([4]; Compound 1 3 mg/kg BIW IP): 56.9% | animals found dead at the late stage of the treatment period ([5]; Compound 1 10 mg/kg, enzalutamide 30 mg/kg, deaths suspected due to castration surgery): One | Tumor Growth % on Day 57 [5, 10]: 267 ± 20% | Tumor Size on Day 57 [5, 10]: 697 ± 44 mm3 | T/C [5, 11]: 86.2% | TGI [5, 11]: 13.8% | TGI ([5]; VCaP CRPC model, castrated mice, Compound 1 10 mg/kg, enzalutamide 30 mg/kg, day 57 after tumor inoculation): 13.8% | TGI with Compound 1 3 mg/kg ([6]; LNCaP CDX model, AR+, 3 mg/kg BIW IP): 6.0% | tumor growth inhibition (TGI), in words ([6]; LNCaP xenograft, Compound 1 3 mg/kg BIW IP, enzalutamide 30 mg/kg QD oral): did not result in tumor growth inhibition | TGI with Compound 1 3 mg/kg ([7]; C42B CDX model, AR+, 3 mg/kg BIW IP): 28.7% | tumor growth inhibition, in words ([7]; C42B xenograft, Compound 1 3 mg/kg BIW IP, enzalutamide 30 mg/kg QD oral): modest tumor growth inhibition which was less than the TGI provided by enzalutamide treatment | TGI with Compound 1 3 mg/kg ([8]; VCaP CDX model, AR V7+, 3 mg/kg BIW IP): 57.8% | tumor growth inhibition, in words ([8]; VCaP xenograft, Compound 1 3 mg/kg BIW IP, enzalutamide 30 mg/kg QD oral): tumor growth inhibition that was greater than the inhibition provided by enzalutamide treatment | Plasma Concentration of Compound 1 (individual mice) ([9]; 1 mg/kg BIW 3 doses IP, 4 hours post last dose, group 4): 10.9 ng/mL and 14.4 ng/mL and 6.89 ng/mL | Plasma Concentration of Compound 1 (individual mice) ([9]; 1 mg/kg BIW 3 doses IP, 72 hours post last dose, group 4): 2.75 ng/mL and 1.85 ng/mL | difference in PK between a single dose or three doses ([9]; 1 mg/kg IP): No difference in PK | Plasma Concentration of Compound 1 (individual mice) ([9]; 1 mg/kg single dose IP, 4 hours post last dose, group 2): 18.0 ng/mL and 9.37 ng/mL and 8.07 ng/mL | Plasma Concentration of Compound 1 (individual mice) ([9]; 1 mg/kg single dose IP, 72 hours post last dose, group 2, BLOQ = below quantifiable limit of 1.05 ng/mL): 1.59 ng/mL and BLOQ* | Plasma Concentration of Compound 1 (individual mice) ([9]; 15 mg/kg BIW 3 doses IP, 4 hours post last dose, group 5): 63.4 ng/mL and 71.3 ng/mL | Plasma Concentration of Compound 1 (individual mice) ([9]; 15 mg/kg BIW 3 doses IP, 72 hours post last dose, group 5): 10.5 ng/mL and 6.77 ng/mL | PK exposure, single dose vs three doses ([9]; 15 mg/kg IP): 15 mg/kg (single dose) group had better PK exposure than the 15 mg/kg (three doses) group | Plasma Concentration of Compound 1 (individual mice) ([9]; 15 mg/kg single dose IP, 4 hours post last dose, group 3): 132 ng/mL and 92.3 ng/mL | Plasma Concentration of Compound 1 (individual mice) ([9]; 15 mg/kg single dose IP, 72 hours post last dose, group 3): 15.7 ng/mL and 50.2 ng/mL and 28.6 ng/mL | concentration at 72 h ([9]; 1 mg/kg, 1 mg/kg BIW 3 doses IP, 72 hours post last dose, group 4, read-out: Plasma Concentration of Compound 1 (individual mice)): 2.02 ng/mL | concentration at 72 h ([9]; 1 mg/kg, 1 mg/kg BIW 3 doses IP, 72 hours post last dose, group 4, read-out: Plasma Concentration of Compound 1, Mean): 2.21 ng/mL | concentration at 72 h ([9]; 1 mg/kg, 1 mg/kg single dose IP, 72 hours post last dose, group 2, BLOQ = below quantifiable limit of 1.05 ng/mL, read-out: Plasma Concentration of Compound 1 (individual mice)): 1.18 ng/mL | concentration at 72 h ([9]; 1 mg/kg, 1 mg/kg single dose IP, 72 hours post last dose, group 2, read-out: Plasma Concentration of Compound 1, Mean): 1.39 ng/mL | concentration at 72 h ([9]; 15 mg/kg, 15 mg/kg BIW 3 doses IP, 72 hours post last dose, group 5, read-out: Plasma Concentration of Compound 1 (individual mice)): 6.43 ng/mL | concentration at 72 h ([9]; 15 mg/kg, 15 mg/kg BIW 3 doses IP, 72 hours post last dose, group 5, read-out: Plasma Concentration of Compound 1, Mean): 7.9 ng/mL | concentration at 72 h ([9]; 15 mg/kg, 15 mg/kg single dose IP, 72 hours post last dose, group 3, read-out: Plasma Concentration of Compound 1, Mean): 31.5 ng/mL | concentration at 4 h ([9]; 1 mg/kg, 1 mg/kg BIW 3 doses IP, 4 hours post last dose, group 4, read-out: Plasma Concentration of Compound 1, Mean): 10.8 ng/mL | concentration at 4 h ([9]; 1 mg/kg, 1 mg/kg single dose IP, 4 hours post last dose, group 2, read-out: Plasma Concentration of Compound 1, Mean): 11.8 ng/mL | concentration at 4 h ([9]; 15 mg/kg, 15 mg/kg BIW 3 doses IP, 4 hours post last dose, group 5, read-out: Plasma Concentration of Compound 1 (individual mice)): 82.9 ng/mL | concentration at 4 h ([9]; 15 mg/kg, 15 mg/kg BIW 3 doses IP, 4 hours post last dose, group 5, read-out: Plasma Concentration of Compound 1, Mean): 72.5 ng/mL | concentration at 4 h ([9]; 15 mg/kg, 15 mg/kg single dose IP, 4 hours post last dose, group 3, read-out: Plasma Concentration of Compound 1 (individual mice)): 147 ng/mL | concentration at 4 h ([9]; 15 mg/kg, 15 mg/kg single dose IP, 4 hours post last dose, group 3, read-out: Plasma Concentration of Compound 1, Mean): 124 ng/mL | exposures in plasma, in words ([9]; DU145 PK/PD cohort, 1 and 15 mg/kg IP, 4 h and 72 h post last dose): time and dose dependent exposures | exposure difference between a single dose and three doses ([9]; at each dose level (1 and 15 mg/kg IP)): no obvious exposure difference
